Results: article PMC6410080 (Viruses, 2019)
Several values for one entry are separate records, joined by “and”; a condition that tells them apart may be missing. Equal values may be shown once. Where a name gives a salt, the structure may show the parent alone. Read-outs that look alike come from different tables or passages of the source.

What was measured:
[1] = tested on: DENV-2; experiment: DENV-2 infection assay / secondary screen (E protein staining); format: cell-based, dengue virus serotype 2; details: Dengue virus, DENV2, Huh-7, 24 h; for inhibition at 10 µM: read-out: % inhibition (DENV-2 screen)
[2] = tested on: SFV; experiment: microbe, parasite or virus in culture; format: cell-based, Semliki Forest virus; details: for IC50 / inhibition at 10 µM: Semliki Forest virus; for IC50: HeLa Kyoto; for inhibition at 10 µM: M-HeLa, read-out: % inhibition (SFV screen); for % inhibition (SFV screen): 10 µM
[3] = tested on: HeLa Kyoto cells; details: human
[4] = in vitro; details: human
[5] = in vitro; details: human, % viability (SFV screen)
[6] = tested on: DENV-1; experiment: microbe, parasite or virus in culture; format: cell-based, dengue virus; details: Dengue virus, DENV1, Huh-7, read-out: IC50 DENV-1
[7] = tested on: HSV-1; experiment: microbe, parasite or virus in culture; format: cell-based, herpes simplex virus 1; details: Human alphaherpesvirus 1, Vero, 8 h, read-out: IC50 HSV (Vero)
[8] = tested on: HeLa Kyoto cells; details: 10 µM
[9] = tested on: DENV-3; experiment: microbe, parasite or virus in culture; format: cell-based, dengue virus; details: Dengue virus, DENV3, Huh-7, read-out: IC50 DENV-3
[10] = tested on: ZIKV; experiment: microbe, parasite or virus in culture; format: cell-based, Zika virus; details: Zika virus, Huh-7, read-out: IC50 ZIKV
[11] = tested on: H5N1 VLP; experiment: microbe, parasite or virus in culture; format: cell-based, influenza H5N1; details: Influenza A virus, H5N1, HeLa Kyoto, 48 h, read-out: IC50 H5N1
[12] = tested on: Huh7 cells; experiment: MTT assay, Huh7 cells
[13] = tested on: SFV; format: cell-based, Semliki Forest virus
[14] = tested on: VSV VLP; experiment: microbe, parasite or virus in culture; format: cell-based, vesicular stomatitis virus; details: Vesicular stomatitis virus, HeLa Kyoto, 24 h, read-out: IC50 VSV
[15] = tested on: SINV; experiment: microbe, parasite or virus in culture; format: cell-based, Sindbis virus; details: Sindbis virus, HeLa Kyoto, read-out: IC50 SINV
[16] = tested on: YF17D; experiment: organism not typed; format: cell-based, yellow fever 17D; details: Huh-7, read-out: IC50 YF17D
[17] = tested on: EBOV VLP; experiment: microbe, parasite or virus in culture; format: cell-based, Ebola virus; details: Zaire ebolavirus, HeLa Kyoto, 48 h, read-out: IC50 EBOV
[18] = tested on: RABV VLP; experiment: microbe, parasite or virus in culture; format: cell-based, rabies virus; details: Lyssavirus rabies, HeLa Kyoto, 24 h, read-out: IC50 RABV
[19] = tested on: viruses/VLPs tested; format: cell-based
[20] = tested on: HCV; experiment: microbe, parasite or virus in culture; format: cell-based, hepatitis C virus; details: Hepatitis C virus, Huh7.5, read-out: IC50 HCV
[21] = tested on: VACV; experiment: microbe, parasite or virus in culture; format: cell-based, vaccinia virus
[22] = tested on: Huh7 cells; details: 10 µM

For CCOC(=O)C1=C(C)NC(C)=C(C(=O)OCC)C1c1ccccc1/C=C/C(=O)OC(C)(C)C [Lacidipine], which inhibition at 10 µM [1] is on record?
Its inhibition at 10 µM is 98%.

What about the IC50 ([2]; 7 h, read-out: IC50 SFV) of the same compound?
Its IC50 is 23.7 µM.

And the inhibition at 10 µM ([2]; 7 h)?
The inhibition at 10 µM was 79.8%.

What about the “TC50 SFV (7h)” value ([3]; 7 h) of the same compound?
Its value is 27.7 mM.

What about the viability at 10 µM [4] of the same compound?
The viability at 10 µM was 75.7%.

And the viability at 10 µM [5]?
Its viability at 10 µM is 80.6%.

With OC(c1cc(C(F)(F)F)nc2c(C(F)(F)F)cccc12)C1CCCCN1 (stereo not shown) [Mefloquine hydrochloride] as the compound, how does the inhibition at 10 µM [1] read?
The inhibition at 10 µM was -22.1%.

And the inhibition at 10 µM ([2]; 7 h)?
Its inhibition at 10 µM is 94.3%.

What about the viability at 10 µM [4] of the same compound?
Its viability at 10 µM is 7.25%.

And the viability at 10 µM [5]?
Its viability at 10 µM is 72.7%.

With CSc1ccc2c(c1)C(N1CCN(C)CC1)Cc1ccccc1S2 (stereo not shown) [Methiothepin mesylate] as the compound, how does the inhibition at 10 µM ([2]; 7 h) read?
Its inhibition at 10 µM is 84%.

And the viability at 10 µM [4]?
Its viability at 10 µM is 0.1%.

What about the viability at 10 µM [5] of the same compound?
Its viability at 10 µM is 66.6%.

For O=C1c2c(O)ccc(O)c2C(=O)c2c(NCCNCCO)ccc(NCCNCCO)c21 [Mitoxantrone, Mitoxantrone dihydrochloride], which IC50 [6] is on record?
The IC50 was 5.6 µM.

What about the inhibition at 10 µM [1] of the same compound?
The inhibition at 10 µM was 99.4%.

What about the IC50 ([1]; read-out: IC50 DENV-2 (7 + 17 h)) of the same compound?
Its IC50 is 2000 nM.

And the IC50 ([1]; read-out: IC50 DENV-2 (24 h))?
The IC50 was 2100 nM.

And the IC50 [7]?
Its IC50 is 6.8 µM.

What about the “% viability (SFV screen)” value ([8]; human) of the same compound?
Its value is 88.92%.

And the IC50 [9]?
The IC50 was 6.3 µM.

And the IC50 [10]?
The IC50 was about 25 µM.

And the IC50 [11]?
The IC50 was 2800 nM.

What about the “% inhibition (SFV screen)” value [2] of the same compound?
Its value is 59.01% and 85.19%.

And the IC50 ([2]; read-out: IC50 SFV (7 h))?
Its IC50 is 7 µM.

And the “TC50 DENV-2 (7 + 17 h)” value ([12]; Huh7, compounds 7 h then compound-free media 17 h)?
Its value is 7.9 µM.

And the “TC50 DENV-2 (24 h)” value ([12]; Huh7, compounds 24 h)?
The value was 4.6 µM.

And the “TC50 SFV (7 h)” value [3]?
The value was 43.2 µM.

And the “TC50 SFV (7h)” value [3]?
The value was 43.2 mM.

What about the viability at 10 µM [4] of the same compound?
Its viability at 10 µM is 11.2%.

What about the “Activity when added before SFV or 30 and 60 min after internalisation” value [13] of the same compound?
The value was “progressive and more dramatic decrease in activity”.

And the “Time of Addition” value [13]?
Its value is “Before and after fusion”.

What about the IC50 [14] of the same compound?
The IC50 was 600 nM.

And the IC50 [15]?
Its IC50 is 9.9 µM.

And the IC50 [16]?
Its IC50 is 2200 nM.

And the IC50 [17]?
The IC50 was 100 nM.

And the IC50 [18]?
The IC50 was under 500 nM.

What about the “Viruses Inhibited” value [19] of the same compound?
Its value is “Unclear pattern”.

And the viability at 10 µM [5]?
Its viability at 10 µM is 88.5%.

And the IC50 [20]?
The IC50 was 2700 nM.

And the “IC50 VACV” value [21]?
The value was “No inhibition”.

For C1CCC(C(CC2CCCCN2)C2CCCCC2)CC1 (stereo not shown) [Perhexiline maleate], which inhibition at 10 µM ([2]; 7 h) is on record?
Its inhibition at 10 µM is 101%.

And the viability at 10 µM [4]?
The viability at 10 µM was 1.42%.

And the viability at 10 µM [5]?
Its viability at 10 µM is 62.9%.

With CN1CCN(CCCN2c3ccccc3Sc3ccc(Cl)cc32)CC1 [Prochloperazine, Prochlorperazine dimaleate] as the compound, how does the inhibition at 10 µM [1] read?
The inhibition at 10 µM was 98.9%.

What about the inhibition at 10 µM ([2]; 7 h) of the same compound?
Its inhibition at 10 µM is 73.3%.

What about the “TC50 SFV (7h)” value [3] of the same compound?
The value was 22.7 mM.

And the viability at 10 µM [4]?
The viability at 10 µM was 46.7%.

What about the viability at 10 µM [5] of the same compound?
The viability at 10 µM was 84%.

Which results are given for O=C1NCCN1CCN1CCC(c2cn(-c3ccc(F)cc3)c3ccc(Cl)cc23)CC1 [Sertindole]?
inhibition at 10 µM ([2]; 7 h): 67.2%; viability at 10 µM [4]: 26.6%; viability at 10 µM [5]: 105%

For CC/C(=C(\c1ccccc1)c1ccc(OCCN(C)C)cc1)c1ccccc1 [Tamoxifen citrate], which inhibition at 10 µM ([2]; 7 h) is on record?
The inhibition at 10 µM was 98.3%.

What about the viability at 10 µM [5] of the same compound?
The viability at 10 µM was 61.7%.

Which inhibition at 10 µM [1] does the source give for C/C=C(/C)C(=O)O[C@H]1C(C)=C2[C@H]([C@@H]1OC(=O)CCCCCCC)[C@@](C)(OC(C)=O)C[C@H](OC(=O)CCC)[C@@]1(O)[C@H]2OC(=O)[C@@]1(C)O [Thapsigargin] here?
The inhibition at 10 µM was 98%.

What about the inhibition at 10 µM ([2]; 7 h) of the same compound?
The inhibition at 10 µM was 83.4%.

What about the viability at 10 µM [4] of the same compound?
The viability at 10 µM was 53.3%.

And the viability at 10 µM [5]?
Its viability at 10 µM is 103%.

For CCSc1ccc2c(c1)N(CCCN1CCN(C)CC1)c1ccccc1S2.O=C(O)CC(O)C(=O)O.O=C(O)CC(O)C(=O)O [Thiethylperazine dimalate], which “% viability (SFV screen)” value [8] is on record?
The value was 92.47%.

What about the “% inhibition (SFV screen)” value [2] of the same compound?
Its value is 91.68%.

What about the “% viability (DENV-2 screen)” value [22] of the same compound?
The value was 0.15%.

Which inhibition at 10 µM ([2]; 7 h) does the source give for CSc1ccc2c(c1)N(CCC1CCCCN1C)c1ccccc1S2 (stereo not shown) [Thioridazine hydrochloride] here?
Its inhibition at 10 µM is 89.1%.

And the viability at 10 µM [4]?
The viability at 10 µM was 5.89%.

And the viability at 10 µM [5]?
Its viability at 10 µM is 71.3%.

Which results are given for C=C(NC(=O)C(=C)NC(=O)c1csc(C2=N[C@@H]3c4csc(n4)[C@H]4NC(=O)c5csc(n5)[C@H]([C@](C)(O)[C@@H](C)O)NC(=O)[C@H]5CSC(=N5)/C(=C/C)NC(=O)[C@H]([C@@H](C)O)NC(=O)c5csc(n5)[C@]3(CC2)NC(=O)[C@H](C)NC(=O)C(=C)NC(=O)[C@H](C)NC(=O)[C@H]([C@@H](C)CC)N[C@@H]2C=Cc3c([C@H](C)O)cc(nc3[C@H]2O)C(=O)O[C@@H]4C)n1)C(N)=O [Thiostrepton]?
inhibition at 10 µM ([2]; 7 h): 65.9%; viability at 10 µM [4]: 18.7%; viability at 10 µM [5]: 88.5%

Which inhibition at 10 µM [1] does the source give for Cc1ccc(S(=O)(=O)NC(=O)NN2CCCCCC2)cc1 [Tolazamide] here?
The inhibition at 10 µM was 36.5%.

What about the inhibition at 10 µM ([2]; 7 h) of the same compound?
The inhibition at 10 µM was 101%.

What about the viability at 10 µM [4] of the same compound?
The viability at 10 µM was 116%.

What about the viability at 10 µM [5] of the same compound?
The viability at 10 µM was 113%.

With CN1CCN(CCCN2c3ccccc3Sc3ccc(C(F)(F)F)cc32)CC1 [Trifluoperazine dihydrochloride] as the compound, how does the inhibition at 10 µM ([2]; 7 h) read?
Its inhibition at 10 µM is 96.5%.

And the viability at 10 µM [4]?
Its viability at 10 µM is 0.13%.

And the viability at 10 µM [5]?
The viability at 10 µM was 93.9%.
